# Patent US5125099A, “Obtaining heteropolysaccharide-producing microorganism and the microorganism agrobacterium radiobacter NCIB 40018” (Shell Internationale Research Maatschappij B.V., priority 1988, dated 1992)
# Like-named read-outs stand apart in the source and are kept apart here.
# What was measured:
# GBP1 [1] = assay: Binding of [14C]glucose to pure GBP1, equilibrium dialysis, Scatchard analysis; design: species or system Agrobacterium radiobacter
# Procedure: (§1) Determination of binding constants using equilibrium dialysis. This was carried out at 4° C. using an eight-cell rotating module (Hoefer Scientific Instruments, San Fransisco, Calif., U.S.A.). Each cell was divided into two chambers of 0.5 ml volume using a dialysis membrane (Mr cut-off=6-8000). Pure protein (0.5 nmol) was added to one chamber of each cell in 0.3 ml bis-Tris, pH 6.8. Each of the opposing chambers was loaded with 0.3 ml bis-Tris (0.3 ml) containing D-[U-^14 C]glucose [270 mCi mmol^-1 (10 GBq mmol^-1)], the concentration of which was varied over an appropriate range. The module was rotated at 10 rev min^-1 for 30 h (by which time equilibrium had been attained) and samples (50 ul) were taken in triplicate from each chamber and counted in 3 ml Fisofluor 2 (Fisons Ltd.). The data were analyzed according to the method of Scatchard (1949).
# GBP2 [2] = assay: Binding of [14C]glucose to pure GBP2, equilibrium dialysis, Scatchard analysis; design: species or system Agrobacterium radiobacter
# Procedure: as §1
# [3] = tested on: third protein (Mr 30500), BP3; assay: Binding of [14C]glucose to the third periplasmic protein (BP3), equilibrium dialysis; design: species or system Agrobacterium radiobacter
# Procedure: as §1
# GBP1 [4] = assay: Effect of unlabelled glucose analogues on binding of [14C]glucose to GBP1, equilibrium dialysis; design: species or system Agrobacterium radiobacter; settings: for [14C]glucose bound GBP1: 0.5 nmol pure protein, 3 nmol [14C]glucose plus 120 nmol unlabelled analogue, 30 h, 4° C.; for Effect on binding of glucose to GBP1 (in words): competition with [14C]glucose in vitro
# Procedure: (§2) The capacity of glucose analogues to reduce the extent of binding of D-[U-^14 C]glucose to pure proteins was determined by modifying the assay procedure as follows. One chamber of each cell contained 0.5 nmol pure protein in 0.3 ml bis-Tris, pH 6.8, and the other chamber was loaded with 0.3 ml of buffer containing 3 nmol D-[U-^14 C]glucose [85 mCi mmol^-1 (3.2 GBq mmol )] plus 120 nmol of an unlabelled glucose analogue. The quantity of [^14 C]glucose that bound to the proteins in the presence and absence of unlabelled glucose analogues was determined after 30 h incubation.
# GBP2 [5] = assay: Effect of unlabelled glucose analogues on binding of [14C]glucose to GBP2, equilibrium dialysis; design: species or system Agrobacterium radiobacter; settings: for [14C]glucose bound GBP2: 0.5 nmol pure protein, 3 nmol [14C]glucose plus 120 nmol unlabelled analogue, 30 h, 4° C.; for Effect on binding of glucose to GBP2 (in words): competition with [14C]glucose in vitro
# Procedure: as §2
# [6] = tested on: whole cells of A. radiobacter; assay: [14C]glucose uptake by whole cells grown under glucose limitation; type: cell-based, Agrobacterium radiobacter NCIB 11883; settings: for Effect on rate of [14C]glucose uptake by whole cells (in words): unlabelled analogue at 40:1 molar excess, glucose-limited cells; for Glucose uptake rate after pre-incubation with respiratory substrate (in words): 10 mM, pre-incubated before addition of [14C]glucose
# Procedure: Organism and growth conditions. Agrobacterium radiobacter NCIB 11883 was grown at 30° C. in continuous culture (D=0.045 h^-1) under glucose limitation using a chemically defined medium (Linton et al., 1987) supplemented with glucose (4 gl^-1), ammonium sulfate (3 gl^-1) and nitrilotriacetic acid (0.142 gl^-1). The organism was grown in an LH Series 500 chemostat of 2 l working volume at a steady-state biomass density of 2.1 g dry wt 1^-1.
# Measurement of glucose uptake. Rates of glucose uptake were determined by measuring the incorporation of D-[U-^14 C]glucose into whole cells over a period of 60 s. Assays were carried out in an open-topped Rank oxygen electrode vessel containing 1 ml 20 mM HEPES/KOH buffer, pH 7.0, and 1 mg dry wt cells. The contents of the vessel were maintained at 30° C. and mixed continuously using a magnetic stirrer. Assays were started by adding D-[U-^14 C]glucose [2 mCi mmol^-1 (74 MBq mmol^-1; 0.5 uCi (18.5 KBl)] to give a final concentration of 250 uM. Samples (50 ul) of the reaction mixture were withdrawn at 15 s intervals and the cells were collected on nitrocellulose filters of 0.45 uM pore size (2.5 cm dia.; Sartorius) by means of a manifold connected to a vacuum line. The filters were washed immediately using 3 ml 20 mM HEPES, pH 7.0, dried under an infra-red lamp and then immersed in 3 ml of Fisofluor 3 scintillant (Fisons Ltd.). The extent of incorporation of [^14 C]glucose into the cells was determined by counting the radioactivity on the filters using a Hewlett Packard Tri-Carb liquid scintillation counter (80-85% efficiency).
# In order to measure glucose uptake rates at low concentrations of substrate (1-5 uM) the cell density was reduced to 0.01 mg ml^-1, the specific activity of the [^14 C]glucose was increased to 84 mCi mmol^-1 (3.2 Gbq mmol^-1) and the rate of incorporation of ^14 C-label into cells was measured over a period of 35 s.
# The substrate specificity of the transport system was investigated by determining the extent to which unlabelled glucose analogues (10 mM) reduced the rate of uptake of [^14 C]glucose (250 uM). Cell suspensions were incubated with analogues for 5 s prior to addition of [^14 C]glucose.
# [7] = tested on: whole cells of A. radiobacter; assay: Capacity of whole cells to accumulate [14C]glucose; type: cell-based, Agrobacterium radiobacter NCIB 11883
# Procedure: The capacity of A. radiobacter to accumulate glucose was determined by incubating cell suspensions (1 mg dry wt ml^-1) with D-[U-^14 C]glucose [84 mCi mmol^-1 (3.2 Gbq mmol^-1); 20M initial concentration). Samples (100 ul) of the suspension were withdrawn 10s after adding the glucose and the cells were collected on nitrocellulose filters (0.45 um pore size) using vacuum filtration. The filters were washed immediately using 3 ml buffer and immersed in 20 ml boiling water. Aqueous extracts prepared from four filters were pooled, lyophilized and the residue dissolved in 2 ml water. The glucose content of the cells was determined using liquid scintillation counting following separation of [^14 C]glucose from other labelled metabolites present in the extracts using paper chromatography. Samples of the filtrate plus washings were also counted in order to determine the extracellular concentration of glucose at the time of sampling.
# [8] = tested on: A. radiobacter strain AR18; assay: Effect of glucose analogues on [14C]glucose uptake by strain AR18 grown under glucose limitation; type: cell-based, Agrobacterium radiobacter; settings: Agrobacterium radiobacter, AR18, pH 7; unlabelled sugars 10 mM, [14C]glucose 250M, glucose-limited culture D = 0.045 h^-1, control rate 72 nmol min^-1 (mg dry wt)^-1
# Procedure: (§3) Measurement of glucose uptake. […] Assays were carried out in an open-topped Rank oxygen electrode vessel containing 1 ml 20 mM HEPES/KOH buffer, pH 7.0, and 1 mg dry wt cells. The contents of the vessel were maintained at 30° C. and mixed continuously using a magnetic stirrer. […] Samples (50 ul) of the reaction mixture were withdrawn at 15 s intervals and the cells were collected on nitrocellulose filters of 0.45 uM pore size (2.5 cm dia.; Sartorius) by means of a manifold connected to a vacuum line. The filters were washed immediately using 3 ml 20 mM HEPES, pH 7.0, dried under an infra-red lamp and then immersed in 3 ml of Fisofluor 3 scintillant (Fisons Ltd.).
# [9] = tested on: A. radiobacter strain AR9; assay: Effect of glucose analogues on [14C]glucose uptake by strain AR9 grown under glucose limitation; type: cell-based, Agrobacterium radiobacter; settings: Agrobacterium radiobacter, AR9, pH 7; unlabelled sugars 10 mM, [14C]glucose 250M, glucose-limited culture D = 0.045 h^-1, control rate 63 nmol min^-1 (mg dry wt)^-1
# Procedure: as §3
Compound,[14C]glucose bound GBP1 (GBP1 [4]) [% control value],[14C]glucose bound GBP2 (GBP2 [5]) [% control value],activity at 10000 µM [8] [%],activity at 10000 µM [9] [%],Effect on binding of glucose to GBP1 (in words) (GBP1 [4]),Effect on binding of glucose to GBP2 (in words) (GBP2 [5]),Glucose uptake rate after pre-incubation with respiratory substrate (in words) [6],also measured
O=C[C@H](O)[C@@H](O)[C@H](O)[C@H](O)CO [D-glucose],4,4,4,4,–,–,–,"Kd (GBP1 [1]; as printed in the summary, read-out: KD of D-glucose for GBP1 (summary)): 0.23 µM; Kd (GBP1 [1]; equilibrium dialysis, 4° C., pH 6.8, read-out: KD of glucose for GBP1): 0.23 µM; Kd (GBP2 [2]; as printed in the summary, read-out: KD of D-glucose for GBP2 (summary)): 0.07 µM; Kd (GBP2 [2]; equilibrium dialysis, 4° C., pH 6.8, read-out: KD of glucose for GBP2): 0.07 µM; Binding of D-glucose to the third protein (Mr 30500) (in words) [3]: no binding ability; Km ([6]; [14C]glucose varied over the range 1 M-1 mM, whole cells): < 1 µM; Accumulation ratio ([glucose]in/[glucose]out) [7]: > 2000; Accumulation ratio ([glucose]in/[glucose]out) ([7]; 10 s incubation, assuming an intracellular volume of 1-3 ul mg dry wt^-1): 2000-6000"
O=C[C@H](O)[C@@H](O)[C@H](O)CO [D-xylose],72,2,64,–,significantly reduced,significantly reduced,–,–
"N#CC(C#N)=NNc1ccc(OC(F)(F)F)cc1 [FCCP, carbonyl cyanide p-trifluoromethoxyphenylhydrazone]",–,–,–,–,–,–,–,"Inhibition of glucose transport ([6]; at 20 M, added 10 s before glucose): approximately 95%"
CO[C@H]1O[C@H](CO)[C@@H](O)[C@H](O)[C@H]1O [alpha-1-O-methyl-D-glucose],99,104,111,99,did not affect,did not affect,–,Effect on rate of [14C]glucose uptake by whole cells (in words) [6]: none of these unlabelled analogues appreciably reduced; Effect on rate of [14C]glucose uptake by whole cells (in words) ([6]; listed as Alpha-1-O-methyl-D-glucose): failed to reduce significantly
CCO [ethanol],–,–,–,–,–,–,did not increase,–
OCC(O)CO [glycerol],–,–,–,–,–,–,did not increase,–
